# According to patent US8747815B2, “Use of a cosmetic of pharmaceutical composition, comprising a lupeol-rich extract as an active ingredient for stimulating the synthesis of heat shock proteins” (Laboratoires Expanscience, priority 2003, dated 2014):
# Experiments:
# gene encoding HSP47 = assay: cDNA microarray, expression of the gene encoding HSP47 in human skin fibroblasts; type: cell-based; conditions: 4.5 μg/ml lupeol
# Procedure: We used the “cDNA microarray” method for studying the effects of the product on the expression of the genes encoding structural and regulatory proteins of potential interest in skin physiology. Such an approach makes it possible to screen, in a single step, the effects of a product or of a treatment on gene expression in a given biological system and to obtain a signature of the effects of this treatment.
# The product was applied to human skin fibroblasts cultured in MEM/M199 for 18 hours. The lupeol, in solution in ethanol was tested at the concentration of […], this concentration corresponds to a noncytotoxic dose.
# The methodology used is that recommended by Clontech (Palo Alto, USA), and comprises: • a step consisting in extracting and purifying the total RNA; • a step consisting in purifying the messenger RNAs according to the AtlasPure protocol (Clontech); • labeling of the DNA probes with P^32 by reverse transcription; • purifying the label probes by exclusion column chromatography and verification of the quality and of the equivalence by liquid scintillation counting; and • hybridizing membranes (provided by the company Custom Atlas BIOAlternative) with the radiolabeled probes (68° C., overnight). Analysis of Results
# The membranes were analyzed by direct quantification of the radioactivity of the spots using a Cyclone PhosphorImager (provided by the company Packard Instrument).
# The results are expressed in relative units (RU, mean radioactivity of the points of the double spot corresponding to each gene, corrected for the background noise and for the differences in probe labeling intensity).
# The results were analyzed case by case, label by label. Arbitrarily, the limit of significance was fixed at approximately +30% of the control for a stimulating effect, i.e. for an effect greater than 130%.
# HSP47 heat shock protein = assay: Western blotting, expression of the HSP47 protein in fibroblasts in culture; type: cell-based, human; conditions: dose of 20 μg/ml, incubation time of 48 h
# Procedure: This technique consists of: • separation of the various proteins on a polyacrylamide gel under denaturing conditions; • transfer of the proteins onto a specific membrane (PVDF membrane, sold by the company Biorad); • labeling of the protein of interest with a specific antibody (HSP47, Stressgen); • “colorimetric” visualization (Sigma Fast, BCPIP/NBT). Various nontoxic concentrations (5, 10 and 20 μg/ml) and several incubation times (24 and 48 hours) were tested.
# human skin fibroblasts = assay: Cytotoxicity of test concentrations on fibroblasts in culture; type: cell-based
# Normal fibroblasts (FS) [1] = assay: Retraction of collagen lattice (free lattice), normal fibroblasts; type: cell-based
# Procedure: (§1) Normal fibroblasts (FS), fibroblasts from a red or recent stretch mark (FVr) and fibroblasts from an older white stretch mark (FVb) were used in this study.
# (§2) The fibroblasts were cultured in the absence or in the presence of lupeol at a concentration of 7 μg/ml.
# (§3) The mechanism of retraction consists of the gathering up and rearranging of collagen by fibroblasts. The collagen polymerizes into fibrils to which the cells attach. The latter pull on the fibrils by virtue of their migratory movement, and thus reorganize the matrix. The diameter of the lattice is then decreased.
# (§4) The mixture for producing lattices was poured into Petri dishes 50 mm in diameter. A gel formed in a few minutes at 37° C. The lattices were cultured with or without lupeol. The degree of retraction was determined by measuring the diameters of the lattices.
# [2] = tested on: fibroblasts from a red or recent stretch mark (FVr); assay: Retraction of collagen lattice (free lattice), red stretch mark fibroblasts; type: cell-based
# Procedure: as §1, §2, §3, §4
# [3] = tested on: fibroblasts from an older white stretch mark (FVb); assay: Retraction of collagen lattice (free lattice), white stretch mark fibroblasts; type: cell-based
# Procedure: as §1, §2, §3, §4
# Normal fibroblasts (FS) [4] = assay: Isometric forces developed by fibroblasts in lattice, normal fibroblasts; type: cell-based; conditions: FS + lupeol 7 μg/ml, at 7 hours of culture; FS alone 3583 V±1076
# From the text: (§5) Normal fibroblasts (FS), fibroblasts from a red or recent stretch mark (FVr) and fibroblasts from an older white stretch mark (FVb) were used in this study. Mechanical inhibition of the retraction of the collagen gel in which fibroblasts are embedded is reflected by the generation of a force, called “retraction force” or “isometric force”. The lattices develop in a culture dish that consists of 8 rectangular cells. Placed into each one are 2 flexible silicon slides, the lower parts of which consist of grids to which the lattice attaches when it polymerizes. The lattice develops between 2 slides so as to give a rectangular shape that is slightly shrunken at the center. This shape in conventional mechanics is referred to as a “diabolo” shape. These slides have, in their upper part, a strain gauge system made of gold deposited at their surface. Under the influence of the retraction force developed by the fibroblasts, the silicon slides distort. This is reflected by a variation in the value of electrical resistance of the stress gauge, measured by means of a Wheatstone bridge. This variation indicates the force developed within the lattice, measured in real time via a PC acquisition card and suitable software. The mixture for producing the lattices was poured into the rectangular cells of the culture dish. A gel formed in a few minutes at 37° C. […] The isometric forces were measured for 48 hours.
# [5] = tested on: fibroblasts from a red or recent stretch mark (FVr); assay: Isometric forces developed by fibroblasts in lattice, red stretch mark fibroblasts; type: cell-based; conditions: FVr + lupeol 7 μg/ml, at 7 hours of culture; FVr alone 5547 V±808
# From the text: as §5
# [6] = tested on: fibroblasts from an older white stretch mark (FVb); assay: Isometric forces developed by fibroblasts in lattice, white stretch mark fibroblasts; type: cell-based; conditions: FVb + lupeol 7 μg/ml, at 7 hours of culture; FVb alone 3999 V±881
# From the text: as §5
# [7] = tested on: FS, FVr and FVb fibroblasts; assay: Demonstration of F actin (phalloidin-FITC) in fibroblasts cultured in lattice; type: cell-based; conditions: lupeol 7 μg/ml, lattices cultured for 5 days
# Procedure: Normal fibroblasts (FS), fibroblasts from a red or recent stretch mark (FVr) and fibroblasts from an older white stretch mark (FVb) were used in this study. The fibroblasts were cultured in the absence or in the presence of lupeol at a concentration of 7 μg/ml. Fibroblasts are large (100 μm) cells with a fusiform or star-shaped morphology. Their cytoplasm contains an assembly of protein filaments (intermediate filaments, microtubules, actin filaments) which constitute the framework, or cytoskeleton, thereof in close relationship with the plasma membrane. 10% of all cell proteins consist of actin, polymerized in the form of filaments and bundles, which are often described as stress fibers. Actin filaments contribute to the contractile activity of the fibroblast by generating isometric forces. Several types of actin exist, including polymerized fibrillar actin (F actin) and a smooth muscle actin (αSM actin). Lattices pulled over a nylon ring were cultured for 5 days in Petri dishes (Ø 50 mm). They were fixed with 3% paraformaldehyde in PBS for 20 min, and then rinsed with PBS. They were subsequently incubated with PBS+0.1% Triton X100 in order to permeabilize the membrane. […] They were mounted between slide and cover slip with a drop of Vectashield, and were then observed under a fluorescence microscope, under UV.
# [8] = tested on: FS, FVr and FVb fibroblasts; assay: Demonstration of αSM actin (immunolabeling) in fibroblasts cultured in lattice; type: cell-based; conditions: lupeol 7 μg/ml, lattices cultured for 5 days
# Procedure: Normal fibroblasts (FS), fibroblasts from a red or recent stretch mark (FVr) and fibroblasts from an older white stretch mark (FVb) were used in this study. The fibroblasts were cultured in the absence or in the presence of lupeol at a concentration of 7 μg/ml. Fibroblasts are large (100 μm) cells with a fusiform or star-shaped morphology. Their cytoplasm contains an assembly of protein filaments (intermediate filaments, microtubules, actin filaments) which constitute the framework, or cytoskeleton, thereof in close relationship with the plasma membrane. 10% of all cell proteins consist of actin, polymerized in the form of filaments and bundles, which are often described as stress fibers. Actin filaments contribute to the contractile activity of the fibroblast by generating isometric forces. Several types of actin exist, including polymerized fibrillar actin (F actin) and a smooth muscle actin (αSM actin). Lattices pulled over a nylon ring were cultured for 5 days in Petri dishes (Ø 50 mm). They were fixed with 3% paraformaldehyde in PBS for 20 min, and then rinsed with PBS. They were subsequently incubated with PBS+0.1% Triton X100 so as to permeabilize the membrane with respect to antibodies, and then with 3% H2O2 in order to eliminate endogenous peroxidases. […] was blocked with 3% BSA+10% sheep serum in PBS. […]
compound,measurement,setting,value
"C=C(C)[C@@H]1CC[C@]2(C)CC[C@]3(C)[C@H](CC[C@@H]4[C@@]5(C)CC[C@H](O)C(C)(C)[C@@H]5CC[C@]43C)[C@@H]12 [lupeol, Lupeol]","HSP47 gene expression, % of the control","gene encoding HSP47; 18 hours, human skin fibroblasts",129 % of the control
same,"HSP47 gene expression, relative units (RU)","gene encoding HSP47; 18 hours, human skin fibroblasts, control cells 28.2 RU",36.4 RU
same,regulation of the expression of the gene encoding HSP47,gene encoding HSP47; incubation for 18 hours,positive regulation
same,HSP47 production (Western blotting),HSP47 heat shock protein,stimulation of HSP47 production
same,cytotoxicity of the tested concentration,"human skin fibroblasts; 4.5 μg, in solution in ethanol, human skin fibroblasts",noncytotoxic
same,toxicity of the tested concentrations,"human skin fibroblasts; 5, 10 and 20 μg/ml, fibroblasts in culture",nontoxic
same,Gel diameter,"Normal fibroblasts (FS) [1]; FS + lupeol 7 μg/ml, FS alone 2.5",3
same,% decrease in retraction,"Normal fibroblasts (FS) [1]; FS, lupeol 7 μg/ml, at D2",20%
same,Gel diameter,"[2]; FVr + lupeol 7 μg/ml, FVr alone 3",3.6
same,% decrease in retraction,"[2]; FVr, lupeol 7 μg/ml, at D2",20%
same,Gel diameter,"[3]; FVb + lupeol 7 μg/ml, FVb alone 2.9",3.2
same,% decrease in retraction,"[3]; FVb, lupeol 7 μg/ml, at D2",10%
same,isometric forces,Normal fibroblasts (FS) [4],1325 V
same,isometric forces,[5],2488 V
same,isometric forces,[6],1365 V
same,F actin stress fibers and fibroblast morphology,[7],lose their F actin stress fibers and evolve toward a star-shaped form
same,labeling for αSM actin,[8],weak labeling for αSM actin
